{"source": "paper PMC10446491", "about": "(Frontiers in Immunology, 2023)", "system": "lysis of EA", "assay": "CH50 test of C5 proteins in 1.5% C5-depleted human sera with EA", "assay_type": "cell-based", "details": "1.5% C5-depleted human sera supplemented with C5 protein", "procedure": "Recombinant human C5 R885 variants (rhC5 R885C and rhC5 R885H) were prepared in-house ( Supplementary Material ). Their activities on complement activation were examined by the CH50 test using 1.5% C5-depleted human sera supplemented with C5 R885 variants. […] Other procedures and data analysis are described in Section 2.3.\nSupplementary Figure 2. Determination of CH50 of the hemolysis by C5 from different sources. Wild type C5 purified from human sera (hC5 compTech) (Complement Technologies), recombinant C5 wild type (rhC5 WT), recombinant C5 variant R885C (rhC5 R885C), and recombinant C5 variant R885H (rhC5 R885H). Various concentrations of protein C5 were added to 1.5% C5-depleted human sera followed by incubation with EA (0.5×) in GVB++ buffer. All data were from 2 plates (duplicate in each plate).", "data": [{"substance": "C5 wt: Wild-type human C5, purified from human sera or recombinant (rhC5 wt)", "values": [{"measurement": "CH50", "result": "0.2 to 0.3", "unit": "nM"}]}, {"substance": "rhC5 R885C: Recombinant human C5 variant with single mutation R885C, prepared in-house", "values": [{"measurement": "CH50", "result": 5.2, "unit": "nM"}]}, {"substance": "rhC5 R885H: Recombinant human C5 variant with single mutation R885H, prepared in-house", "values": [{"measurement": "CH50", "result": 1.1, "unit": "nM"}]}]}
